Data as given in patent US20130102009A1, “SIRTUIN ACTIVATORS AND ACTIVATION ASSAYS” (priority 2010, published 2013).
Structures can show the parent of a compound that is named as a salt.

What was measured:
[1] = target: T1, SIRT1(183-664) (Homo sapiens, UniProt Q96EB6); assay: Fluorescence binding experiment with SIRT1(183-664); conditions: excitation 315 nm, emission 450 nm; read-out: Kx (μM), Fluorescence
T1 construct: the truncated version used for biophysical studies SIRT1(183-664); made in house
T1 sequence (Q96EB6 183-664): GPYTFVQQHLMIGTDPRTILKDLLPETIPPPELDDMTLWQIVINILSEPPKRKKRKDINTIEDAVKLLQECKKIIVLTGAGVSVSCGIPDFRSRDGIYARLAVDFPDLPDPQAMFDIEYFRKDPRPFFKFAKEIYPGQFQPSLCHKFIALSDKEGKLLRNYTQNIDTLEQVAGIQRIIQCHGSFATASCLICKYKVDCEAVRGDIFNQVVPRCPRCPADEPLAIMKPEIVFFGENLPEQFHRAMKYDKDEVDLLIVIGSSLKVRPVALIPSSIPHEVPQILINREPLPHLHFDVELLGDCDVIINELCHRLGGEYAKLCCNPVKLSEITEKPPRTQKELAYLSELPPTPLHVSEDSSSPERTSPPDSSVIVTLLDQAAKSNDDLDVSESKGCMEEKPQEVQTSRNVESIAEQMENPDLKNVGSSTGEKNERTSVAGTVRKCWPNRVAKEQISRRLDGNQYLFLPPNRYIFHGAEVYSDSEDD
Protocol: All peptides were prepared by BioPeptide (San Diego, Calif.) and shown to be at least 95% pure by analytical HPLC analysis. Bovine glutamate dehydrogenase (GDH), α-ketoglutarate, NADH and NAD^+ were from Sigma Chemical Company. Full-length, human SIRT1 and the truncated version used for biophysical studies SIRT1(183-664) were prepared as described previously, and shown to have equivalent kinetic properties (Milne et al. (2007) Nature 450, 712-716). The nicotinamidase PNC1 was prepared as described by Denu and colleagues (Smith et al. (2009) Anal Biochem 394, 101-109).
SIRT1(183-664) was dialyzed against a buffer composed of 137 mM NaCl, 2.7 mM KCl, 1 mM MgCl2, 2 mM TCEP, 5% (v/v) glycerol and 50 mM HEPES-NaOH, pH 7.3. 14 was dissolved in the final dialysis buffer and its pH values were adjusted to match that of the protein solution. The fluorescence emission spectra of 14 in the absence or presence of different concentrations of enzyme was monitored on the SpectraMax M5 with excitation at 315 nm. The fluorescence intensity change at 450 nm was plotted against the concentration of SIRT1(183-664) and fitted using a standard binding equation.

[2] = target: T2, SIRT1 (Homo sapiens, UniProt Q96EB6); assay: Continuous PNC1-GDH-coupled assay of SIRT1-catalyzed deacetylation of Ac-Arg-His-Lys-Lys^Ac-X with STACs; assay type: biochemical; conditions: for Relative Velocity, X=Ala-NH2: Ac-Arg-His-Lys-Lys^Ac-Ala-NH2; for Relative Velocity, X=NH2: Ac-Arg-His-Lys-Lys^Ac-NH2
T2 sequence (Q96EB6 1-747): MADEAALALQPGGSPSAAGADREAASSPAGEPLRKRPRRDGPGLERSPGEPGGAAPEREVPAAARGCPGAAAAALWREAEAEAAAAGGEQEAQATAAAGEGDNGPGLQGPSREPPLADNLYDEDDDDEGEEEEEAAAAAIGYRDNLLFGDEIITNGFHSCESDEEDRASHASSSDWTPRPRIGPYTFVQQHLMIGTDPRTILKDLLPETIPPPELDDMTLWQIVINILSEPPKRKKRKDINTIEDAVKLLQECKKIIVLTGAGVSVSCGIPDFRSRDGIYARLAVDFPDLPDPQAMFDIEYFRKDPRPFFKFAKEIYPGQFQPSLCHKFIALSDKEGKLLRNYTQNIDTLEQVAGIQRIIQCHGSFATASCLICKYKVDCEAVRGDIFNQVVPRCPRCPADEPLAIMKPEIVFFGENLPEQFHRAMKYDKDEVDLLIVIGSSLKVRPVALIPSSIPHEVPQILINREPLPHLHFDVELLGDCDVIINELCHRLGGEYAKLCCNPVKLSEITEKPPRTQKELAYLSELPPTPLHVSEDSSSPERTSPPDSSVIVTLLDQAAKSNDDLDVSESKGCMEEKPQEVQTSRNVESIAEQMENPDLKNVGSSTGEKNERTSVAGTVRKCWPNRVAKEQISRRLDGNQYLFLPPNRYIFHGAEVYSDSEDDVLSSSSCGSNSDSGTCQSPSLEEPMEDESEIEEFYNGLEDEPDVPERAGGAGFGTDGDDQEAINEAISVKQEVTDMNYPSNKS
Protocol: Bovine glutamate dehydrogenase (GDH), α-ketoglutarate, NADH and NAD^+ were from Sigma Chemical Company. […] The nicotinamidase PNC1 was prepared as described by Denu and colleagues (Smith et al. (2009) Anal Biochem 394, 101-109). To determine the interaction of STACs with SIRT1 two kinetic methods were employed. […] (2007) Nature 450, 712-716). The other, used with peptides of general structure […], used a continuous, enzyme-coupled method reported previously (Smith et al. (2009) Anal Biochem 394, 101-109), in which the SRT1 product nicotinamide is first converted into nicotinic acid and ammonia by the action of PNC1, and the ammonia then used by GDH to convert α-ketoglutarate into glutamate. This reaction occurs with oxidation of NADH to NAD^+ which is accompanied by a change in absorbance at 340 nm (Δε340=-6,200 M^-1 cm^-1). The kinetic experiments used to characterize activators were run on a Perkin Elmer Lambda 25 spectrophotometer equipped with a water-jacketed, eight-cell changer maintained at 25° C. In a typical kinetic experiment, all components of the reaction solution except SIRT1 were added to a 1 mL cuvette and allowed to reach thermal equilibrium. Final concentrations of the coupling system components were: 1 μM PNC1, 0.23 mM NADH, 3.4 mM α-ketoglutarate, and 20 U/mL bovine GDH. This solution also contained peptide substrate, NAD^.0., and activator, at concentrations indicated in the text. The final DMSO concentration was kept constant at 1%, and the buffer used in these experiments was 50 mM HEPES, 150 mM NaCl, pH 7.5. While the system was reaching thermal equilibrium, the absorbance was monitored to provide an accurate estimate of the background rate, which was subtracted from the reaction rate after the addition of SIRT1. Activator titrations were plotted as relative velocity (i.e., the ratio of vx, velocity in the presence of activator X, to vo, velocity in the absence of activator) vs. [X]o, initial concentration of activator, and fit by nonlinear least-squares to the mechanism-independent expression for enzyme activation of […] the maximum relative velocity (i.e., vx/vo at infinite [X]o) and EC50 is the activator concentration at which vx/vo=(RVmax-1)/2. EC50 is a function of the kinetic mechanisms of both catalysis and activation, and the concentrations of substrates.

[3] = [SRT]o = 5 μM, [peptide]o ≦ Km, [NAD+] = 70 μM
[4] = full titration, 3-5 independent experiments

Compound | Kd [1] [µM] | Relative Velocity, X=Ala-NH2 [2, 3] | Relative Velocity, X=NH2 [2, 3] | EC1.5 for activation of deacetylation of Ac-Arg-His-Lys-Lys^Ac-X, X=TrpNH2 [2, 4] [µM] | further results
CN(C)Cc1cnc2sc(-c3ccccc3NC(=O)c3cnc4ccccc4n3)nc2c1 [Compound 2, N-(2-(6-((dimethylamino)methyl)thiazolo[5,4-b]pyridin-2-yl)phenyl)quinoxaline-2-carboxamide] | 0.27 | – | – | – | –
CCCCc1nc(NC2CCNCC2)cc(C(=O)Nc2ccccc2-c2nc3cc(COC4CCNCC4)cnc3s2)n1 [Compound 10, 2-butyl-6-(piperidin-4-ylamino)-N-(2-(6-((piperidin-4-yloxy)methyl)thiazolo[5,4-b]pyridin-2-yl)phenyl)pyrimidine-4-carboxamide] | – | 0.3 | 0.6 | 1.9 | Relative Velocity, X=AMC ([2]; [SRT]o = 5 μM, [peptide]o ≦ Km, [NAD+] = 70 μM, Ac-Arg-His-Lys-Lys^Ac-AMC, listed as 22): activates; Relative Velocity, X=NH2 ([2]; [SRT]o = 5 μM, [peptide]o ≦ Km, [NAD+] = 70 μM, listed as 22): inhibits; Relative Velocity, X=Trp-NH2 ([2]; [SRT]o = 5 μM, [peptide]o ≦ Km, [NAD+] = 70 μM, Ac-Arg-His-Lys-Lys^Ac-Trp-NH2, listed as 22): activates; EC1.5 for activation of deacetylation of Ac-Arg-His-Lys-Lys^Ac-X, X=AMC [2, 4]: 3.1 µM
CN(C)CCCNc1cc(-c2nc3c(NC(=O)c4ccc(CN5CCNCC5)cc4)cccc3[nH]2)ccn1 [Compound 14, N-(2-(2-(3-(dimethylamino)propylamino)pyridin-4-yl)-1H-benzo[d]imidazol-4-yl)-4-(piperazin-1-ylmethyl)benzamide trihydrochloride] | 0.27 | – | – | – | –
COc1cc(C(=O)Nc2ccccc2-c2cn3c(CN4CCNCC4)csc3n2)cc(OC)c1OC [SRT1460] | – | 1.1 | 0.8 | 5.0 | EC1.5 for activation of deacetylation of Ac-Arg-His-Lys-Lys^Ac-X, X=PheNH2 [2, 4]: 26.0 µM; RVmax for activation of deacetylation of Ac-Arg-His-Lys-Lys^Ac-X, X=TrpNH2 [2, 4]: 4.1±0.1; EC50 ([2]; full titration, 3-5 independent experiments, read-out: EC50 for activation of deacetylation of Ac-Arg-His-Lys-Lys^Ac-X, X=TrpNH2): 27 ± 8 µM
